The subject of this assay is NCL MEFs. In words: LysoTracker signal in Batten disease mouse embryonic fibroblasts. Format: cell-based. The protocol:
Wild type (WT) and mutant cells were treated with vehicle or LM11A-31 (100 nM, 1 μM, 10 μM). Cells were plated on day 0 and dosed with drug-containing media on DIV3 and DIV5. Concentrations of drug are shown on the x-axis above each image column; genotypes are shown to the left of each row. […] Increasing concentrations of LM11A-31 are shown along the x-axis.
Specific experimental details are included in figure legends. In general, after collection and preparation, MEFs and PNCs were dosed with vehicle or semaglutide (10 nM, 100 nM. or 1 μM) on DIV3 and DIV5. On DIV7, cells were exposed to the following dyes: Hoechst 33342 (1:1000 dilution), LysoTracker™ Red DND-99 (1:10,000 dilution), fixed. and imaged. Mice were injected three times per week with vehicle or semaglutide (2.571 μg/mouse, 25.71 μg/mouse) beginning at wean. Body weight was measured at 4, 6, 8, 12, and 16 weeks of age. At 16 weeks of age, Cln3^Δex7/8 mice along with age matched wildtype control mice were CO2 euthanized and intracardially perfused with PBS. Brains were collected and placed on a 1 mm sagittal brain block. Brains were sliced at the midline and 3 mm right of the midline. The 3 mm sagittal piece was flash frozen with −50° C. isopentane and then sectioned on a cryostat at 16 μm and placed on slides. For ASM measurements, slides were counterstained with DAPI. The other hemisphere was fixed in 4% PFA and sectioned at 50 microns on a vibratome. Immunohistochemistry was performed on free-floating sections. For SubC, GFAP, and CD68 immunolabeling, primary antibodies included mitochondrial anti-ATP synthase subunit C (Abcam, ab181243; 1:1000), anti-GFAP (Dako, Z0334; 1:5000), anti-CD68 (AbD Serotec, MCA1957; 1:2000), and secondary antibodies included anti-rabbit biotinylated (Vector Labs, BA-1000 1:1000) and anti-rat (Vector Labs, BA-9400 1:1000). Coverslips were mounted on slides using antifade-mounting media and were stored in the dark before imaging. ASM slides were imaged on a Nikon ECLIPSE™ Ni-E upright microscope with a CoolSNAP™ DYNO camera. Images were extracted from S1BF of the somatosensory cortex, CA3 of the hippocampus, and the VPM/VPL of the thalamus, with multiple images taken of multiple tissues from each animal. IHC slides were imaged and analyzed using an Aperio Digital Pathology Slide Scanner (AT2) and associated software. Images were extracted from the S1BF of the somatosensory cortex, the CA3 of the hippocampus, and the VPM/VPL of the thalamus.
The glucagon-like peptide-1 (GLP-1) analogue, semaglutide is an FDA approved type II diabetes drug. It has been shown in previous reports that GLP1 receptor (GLP1R) agonists decrease the release of inflammatory cytokines by modulating microglial activity, but existing studies have not examined any activity on lysosome-related pathways. To test whether GLP1R agonism would reduce Batten disease pathology, we tested semaglutide in Batten disease cell models (FIGS. 18-19). Wild type (WT) and mutant mouse embryonic fibroblasts (MEFs) were treated with vehicle or semaglutide (10 nM, 100 nM, 1 μM; see FIG. 18). Cells were plated on in vitro day 0 and dosed with drug-containing media on DIV3 and DIV5. Analysis occurred on DIV7. Concentrations of drug are shown on the x-axis above each image column; genotypes are shown to the left of each row. […] Increasing concentrations of semaglutide are shown along the x-axis. […] Treatment with semaglutide (10 nM, 100 nM, 1 μM) had no impact on the accumulation of autofluorescent storage material (ASM) in Cln1^R151X, Cln2^R207X, Cln3^Δex7/8, Cln6^nclf, and Cln8^mnd MEFs (FIG. 18B).

Take semaglutide: the LysoTracker signal entry is recorded as “had no impact” (semaglutide 10 nM and 100 nM, Cln8^mnd MEFs); “had no impact” (semaglutide 10 nM, 100 nM, 1 μM, Cln1^R151X and Cln6^nclf MEFs); “significantly reduced” (semaglutide 10 nM, 100 nM, 1 μM, Cln2^R207X MEFs); “had no impact” (semaglutide 10 nM, Cln3^Δex7/8 MEFs); “significantly reduced” (semaglutide 100 nM, 1 μM, Cln3^Δex7/8 MEFs); “significantly reduced” (semaglutide 1 μM, Cln8^mnd MEFs).

Consider `CC[C@H](C)[C@H](N)C(=O)NCCN1CCOCC1` [LM11A-31, N-[2-(morpholin-4-yl)ethyl]-L-isoleucinamide], for which the LysoTracker signal result is, setting by setting: (LM11A-31 100 nM, NCL MEFs) “had no impact”; (LM11A-31 1 μM (mid dose), Cln1^R151X, Cln2^R207X MEFs) “significantly reduced”; (LM11A-31 1 μM, Cln3^Δex7/8, Cln6^nclf, Cln8^mnd MEFs) “decreasing trend”; (LM11A-31 10 μM, Cln1^R151X and Cln2^R207X MEFs) “decreasing trend”; (LM11A-31 varying doses, Cln3^Δex7/8 and Cln6^nclf MEFs) “decreasing trend”.

Regarding `Cc1cccc(NC(=O)c2ccc(C(F)(F)F)cc2C(=O)O)n1` [AF38469, 2-((6-methylpyridin-2-yl)carbamoyl)-5-(trifluoromethyl)benzoic acid], the LysoTracker signal entry reads like this: (40 nM, 400 nM, 4 μM, Cln1^R151X, Cln2^R207X, Cln6^nclf, Cln8^mnd, Cln11^−/− MEFs, DIV7, vs NCL vehicle) “significantly reduced”; (40 nM, Cln3^Δex7/8 MEFs, DIV7) “significantly increased”; (400 nM, Cln3^Δex7/8 MEFs, DIV7) “significantly reduced”; (4 μM, Cln3^Δex7/8 MEFs, DIV7) “had no impact”.

The values are drawn from US20240197700A1, “Methods and Compositions for Treating Lysosomal Storage Disorders” (Sanford Health, priority 2021, published 2024).
